≈ marks a conversion by molar mass, not a printed value. Read-outs that look alike come from different tables or passages of the source.
Assays:
[1] = tested on: C. albicans ATCC 64124(R) (B); experiment: MIC determination by in vitro antifungal assay; type: cell-based; conditions: Candida albicans, ATCC64124, 48 h
[2] = tested on: Candida albicans ATCC 10231 (A); experiment: MIC determination in the presence and absence of FBS; type: cell-based; conditions: for antifungal activity in the presence of FBS (in words): strains A, J, and L, +10% FBS versus no FBS; for MIC: Candida albicans, ATCC10231, read-out: MIC, Candida albicans ATCC 10231 (A) (no FBS)
Hemolytic activity assay = type: cell-based; conditions: mouse, murine red blood cells (mRBCs)
[3] = tested on: C. albicans ATCC 10231 (strain A); experiment: Membrane permeabilization assay using propidium iodide staining; type: cell-based, Candida albicans; conditions: 1 h at 35 °C; 20 and 26 at 4 × MIC, KANB (C14) at 2 × MIC ([…]), FLC at 7.8 µg/mL
[4] = tested on: C. albicans ATCC 64124 (strain B) biofilms; experiment: Biofilm assay
[5] = tested on: Candida albicans ATCC 10231 (A); experiment: MIC determination by in vitro antifungal assay; type: cell-based; conditions: ATCC10231, 48 h, read-out: MIC (MIC-0)
[6] = tested on: C. albicans ATCC MYA-2876(S) (C); experiment: MIC determination by in vitro antifungal assay; type: cell-based; conditions: Candida albicans, 48 h
[7] = tested on: C. albicans ATCC 90819(R) (D); experiment: MIC determination by in vitro antifungal assay; type: cell-based; conditions: Candida albicans, ATCC90819, 48 h
[8] = tested on: C. albicans ATCC MYA-2310(S) (E); experiment: MIC determination by in vitro antifungal assay; type: cell-based; conditions: Candida albicans, 48 h
[9] = tested on: C. albicans ATCC MYA-1237(R) (F); experiment: MIC determination by in vitro antifungal assay; type: cell-based; conditions: Candida albicans, 48 h, read-out: MIC (MIC-0)
[10] = tested on: C. albicans ATCC MYA-1003(R) (G); experiment: MIC determination by in vitro antifungal assay; type: cell-based; conditions: Candida albicans, 48 h, read-out: MIC (MIC-0)
[11] = tested on: Aspergillus flavus ATCC MYA-3631 (K); experiment: MIC determination against filamentous fungi; type: cell-based; conditions: 48 h, read-out: MIC (MIC-0)
[12] = tested on: Aspergillus nidulans ATCC 38163 (L); experiment: MIC determination against filamentous fungi; type: cell-based; conditions: ATCC38163, 48 h, read-out: MIC (MIC-0)
[13] = tested on: Aspergillus terreus ATCC MYA-3633 (M); experiment: MIC determination against filamentous fungi; type: cell-based; conditions: 48 h, read-out: MIC (MIC-0)
HEK-293 = experiment: In vitro cytotoxicity assay; type: cell-based; conditions: 24 h, 18 and 20 at 7.8 µg/mL
A549 = experiment: In vitro cytotoxicity assay; type: cell-based; conditions: 24 h
BEAS-2B = experiment: In vitro cytotoxicity assay; type: cell-based; conditions: 24 h, 18 and 20 at 7.8 µg/mL
[14] = tested on: Aspergillus nidulans ATCC 38163 (L); experiment: MIC determination in the presence and absence of FBS; type: cell-based; conditions: ATCC38163, read-out: MIC, Aspergillus nidulans ATCC 38163 (L) (no FBS)

Row | MIC ([1]; read-out: MIC (MIC-0)) [µg/mL] | increase in MIC in biofilms (SMIC50 and SMIC80 versus MIC in liquid cultures) [4] | MIC [5] [µg/mL] | MIC ([6]; read-out: MIC (MIC-0)) [µg/mL] | MIC ([7]; read-out: MIC (MIC-0)) [µg/mL] | MIC ([8]; read-out: MIC (MIC-0)) [µg/mL] | MIC [9] [µg/mL] | MIC [10] [µg/mL] | MIC [12] [µg/mL] | MIC [13] [µg/mL] | Structure (SMILES) | hemolysis at 60 min, 7.8 µg/mL (Hemolytic activity assay) [%] | propidium iodide (PI) dye uptake by fungal cells [3] | further results
1 | 7.8 (≈ 14.9 µM) | 2–4 fold | – | – | – | – | – | – | – | – | CCCCCCCCCCCCN1CCN(CC(O)(Cn2cncn2)c2ccc(Cl)cc2Cl)CC1 (stereo not drawn) [Compound 26, 2-(2,4-Dichlorophenyl)-1-(1H-1,2,4-triazol-1-yl)-3-(4-dodecylpiperazine)propan-2-ol] | 85 | neither compound 20 nor 26 (at 4 × MIC) induced cellular uptake of PI dye | antifungal activity in the presence of FBS (in words) [2]: retained their full antifungal activity
2 | – | – | – | – | – | – | – | – | – | – | CCCCCCCCCCCCCCOC[C@H]1O[C@H](O[C@@H]2[C@@H](O)[C@H](O[C@H]3O[C@H](CN)[C@@H](O)[C@H](O)[C@H]3N)[C@@H](N)C[C@H]2N)[C@H](O)[C@@H](N)[C@@H]1O [KANB (C14), reference compound] | – | significantly increased PI dye uptake | –
3 | 31.3 (≈ 92.8 µM) | – | 7.8 (≈ 23.1 µM) | 7.8 (≈ 23.1 µM) | 31.3 (≈ 92.8 µM) | 7.8 (≈ 23.1 µM) | 31.3 (≈ 92.8 µM) | 31.3 (≈ 92.8 µM) | 0.975 (≈ 2.89 µM) | 31.3 (≈ 92.8 µM) | CN1CCN(CC(O)(Cn2cncn2)c2ccc(F)cc2F)CC1 (stereo not drawn) [Compound 16] | – | – | MIC [11]: 31.3 µg/mL (≈ 92.8 µM); hemolysis at 60 min, 62.5 µg/mL (Hemolytic activity assay): < 10%
4 | – | 1–2 fold | – | 7.8 (≈ 15.7 µM) | – | 7.8 (≈ 15.7 µM) | 7.8 (≈ 15.7 µM) | 7.8 (≈ 15.7 µM) | – | – | CCCCCCCCCCN1CCN(CC(O)(Cn2cncn2)c2ccc(Cl)cc2Cl)CC1 (stereo not drawn) [Compound 25, 2-(2,4-Dichlorophenyl)-1-(1H-1,2,4-triazol-1-yl)-3-(4-decylpiperazine)propan-2-ol] | 22 | – | antifungal activity in the presence of FBS (in words) [2]: retained their full antifungal activity
5 | 31.3 (≈ 71.9 µM) | – | 3.9 (≈ 8.95 µM) | 31.3 (≈ 71.9 µM) | 15.6 (≈ 35.8 µM) | > 31.3 | 31.3 (≈ 71.9 µM) | 0.975 to 31.3 (≈ 2.24 to 71.9 µM) | 3.9 (≈ 8.95 µM) | 3.9 (≈ 8.95 µM) | CCCCCCCCN1CCN(CC(O)(Cn2cncn2)c2ccc(F)cc2F)CC1 (stereo not drawn) [Compound 18, 2-(2,4-Difluorophenyl)-1-(1H-1,2,4-triazol-1-yl)-3-(4-octylpiperazine)propan-2-ol] | – | – | MIC [11]: 1.95 µg/mL (≈ 4.48 µM); hemolysis at 60 min, 62.5 µg/mL (Hemolytic activity assay): < 10%; toxicity to mammalian cells (in words) (HEK-293): some toxicity; toxicity to mammalian cells (in words) (A549): nontoxic to A549 at up to 15.5 µg/mL; toxicity to mammalian cells (in words) (BEAS-2B): some toxicity
6 | – | – | – | – | – | – | – | – | – | – | OC(Cn1cncn1)(Cn1cncn1)c1ccc(F)cc1F [FLC, fluconazole, reference compound] | – | did not allow for PI uptake | MIC ([1]; read-out: MIC (MIC-2)): > 125 µg/mL; MIC ([6]; read-out: MIC (MIC-2)): 15.6 µg/mL (≈ 50.9 µM); MIC ([7]; read-out: MIC (MIC-2)): > 125 µg/mL; MIC ([8]; read-out: MIC (MIC-2)): > 125 µg/mL
7 | 3.9 (≈ 4.22 µM) | – | 3.9 (≈ 4.22 µM) | – | 0.975 (≈ 1.06 µM) | – | – | 3.9 (≈ 4.22 µM) | 3.9 (≈ 4.22 µM) | 3.9 (≈ 4.22 µM) | C[C@@H]1[C@H](O)[C@@H](C)/C=C/C=C/C=C/C=C/C=C/C=C/C=C/[C@H](O[C@@H]2O[C@H](C)[C@@H](O)[C@H](N)[C@@H]2O)C[C@@H]2O[C@](O)(C[C@@H](O)C[C@@H](O)[C@H](O)CC[C@@H](O)C[C@@H](O)CC(=O)O[C@H]1C)C[C@H](O)[C@H]2C(=O)O [AmB, amphotericin B, reference compound] | – | – | MIC [2]: 3.9 µg/mL (≈ 4.22 µM); MIC [14]: 3.9 µg/mL (≈ 4.22 µM)
8 | – | 1–4 fold | 1.95 (≈ 7.66 µM) | – | – | – | – | – | 1.95 (≈ 7.66 µM) | – | CCCCCCCCCCCCN1CCNCC1 [Compound 7] | 52 | – | MIC [2]: 1.95 µg/mL (≈ 7.66 µM); MIC [14]: 1.95 µg/mL (≈ 7.66 µM); toxicity to mammalian cells (in words) (HEK-293): toxic; toxicity to mammalian cells (in words) (A549): toxic; toxicity to mammalian cells (in words) (BEAS-2B): toxic

Source: PMC5976239 (Journal of medicinal chemistry, 2017)
